Measurements: ChEMBL document CHEMBL4831500, “Discovery of first-in-class imidazothiazole-based potent and selective ErbB4 (HER4) kinase inhibitors” (Eur J Med Chem, 2021)

Tests used:
[1] = system: Panel NCI-60 (60 carcinoma cell lines); experiment: Growth inhibition of human panel NCI-60 (60 carcinoma cells) assessed as growth percent at 10 uM measured after 48 hrs by SRB assay relative to control; format: functional; details: read-out: Activity
[2] = system: NCI-H522; experiment: Antiproliferative activity against human NCI-H522 cells assessed as cell growth inhibition measured after 48 hrs by SRB assay; format: functional, cell-based; details: NCI-H522, 48 h
[3] = system: SK-MEL-5; experiment: Antiproliferative activity against human SK-MEL-5 cells assessed as cell growth inhibition measured after 48 hrs by SRB assay; format: functional, cell-based; details: SK-MEL-5, 48 h
[4] = system: OVCAR-4; experiment: Antiproliferative activity against human OVCAR-4 cells assessed as cell growth inhibition measured after 48 hrs by SRB assay; format: functional, cell-based; details: OVCAR-4, 48 h
[5] = system: UO-31; experiment: Antiproliferative activity against human UO-31 cells assessed as cell growth inhibition measured after 48 hrs by SRB assay; format: functional, cell-based; details: UO-31, 48 h
[6] = system: WI-38; experiment: Cytotoxicity against human WI-38 cells assessed as cell growth inhibition measured after 48 hrs by SRB assay; format: cell-based; details: WI-38, 48 h
[7] = system: NCI-H522; experiment: Antiproliferative activity against human NCI-H522 cells assessed as cell growth inhibition at 10 uM measured after 48 hrs by SRB assay relative to control; format: functional
[8] = system: U-251; experiment: Antiproliferative activity against human U-251 cells assessed as cell growth inhibition at 10 uM measured after 48 hrs by SRB assay relative to control; format: functional
[9] = system: SK-MEL-5; experiment: Antiproliferative activity against human SK-MEL-5 cells assessed as cell growth inhibition at 10 uM measured after 48 hrs by SRB assay relative to control; format: functional
[10] = system: UO-31; experiment: Antiproliferative activity against human UO-31 cells assessed as cell growth inhibition at 10 uM measured after 48 hrs by SRB assay relative to control; format: functional
[11] = system: MDA-MB-468; experiment: Antiproliferative activity against human MDA-MB-468 cells assessed as cell growth inhibition at 10 uM measured after 48 hrs by SRB assay relative to control; format: functional
[12] = Cytotoxicity against human WI-38 cells assessed as cell growth inhibition at 10 uM measured after 48 hrs by SRB assay relative to control; format: cell-based
[13] = biological target: Serine/threonine-protein kinase B-raf (Homo sapiens, UniProt P15056); experiment: Inhibition of wild type B-RAF (unknown origin) at 10 uM incubated for 40 mins in presence of Mg/ATP mix by [gamma p33]-ATP based scintillation counting method relative to control
[14] = biological target: T1, Epidermal growth factor receptor (Homo sapiens, UniProt P00533); experiment: Inhibition of EGFR (unknown origin) at 10 uM incubated for 40 mins in presence of Mg/ATP mix by [gamma p33]-ATP based scintillation counting method relative to control
T1 sequence (P00533 whole entry): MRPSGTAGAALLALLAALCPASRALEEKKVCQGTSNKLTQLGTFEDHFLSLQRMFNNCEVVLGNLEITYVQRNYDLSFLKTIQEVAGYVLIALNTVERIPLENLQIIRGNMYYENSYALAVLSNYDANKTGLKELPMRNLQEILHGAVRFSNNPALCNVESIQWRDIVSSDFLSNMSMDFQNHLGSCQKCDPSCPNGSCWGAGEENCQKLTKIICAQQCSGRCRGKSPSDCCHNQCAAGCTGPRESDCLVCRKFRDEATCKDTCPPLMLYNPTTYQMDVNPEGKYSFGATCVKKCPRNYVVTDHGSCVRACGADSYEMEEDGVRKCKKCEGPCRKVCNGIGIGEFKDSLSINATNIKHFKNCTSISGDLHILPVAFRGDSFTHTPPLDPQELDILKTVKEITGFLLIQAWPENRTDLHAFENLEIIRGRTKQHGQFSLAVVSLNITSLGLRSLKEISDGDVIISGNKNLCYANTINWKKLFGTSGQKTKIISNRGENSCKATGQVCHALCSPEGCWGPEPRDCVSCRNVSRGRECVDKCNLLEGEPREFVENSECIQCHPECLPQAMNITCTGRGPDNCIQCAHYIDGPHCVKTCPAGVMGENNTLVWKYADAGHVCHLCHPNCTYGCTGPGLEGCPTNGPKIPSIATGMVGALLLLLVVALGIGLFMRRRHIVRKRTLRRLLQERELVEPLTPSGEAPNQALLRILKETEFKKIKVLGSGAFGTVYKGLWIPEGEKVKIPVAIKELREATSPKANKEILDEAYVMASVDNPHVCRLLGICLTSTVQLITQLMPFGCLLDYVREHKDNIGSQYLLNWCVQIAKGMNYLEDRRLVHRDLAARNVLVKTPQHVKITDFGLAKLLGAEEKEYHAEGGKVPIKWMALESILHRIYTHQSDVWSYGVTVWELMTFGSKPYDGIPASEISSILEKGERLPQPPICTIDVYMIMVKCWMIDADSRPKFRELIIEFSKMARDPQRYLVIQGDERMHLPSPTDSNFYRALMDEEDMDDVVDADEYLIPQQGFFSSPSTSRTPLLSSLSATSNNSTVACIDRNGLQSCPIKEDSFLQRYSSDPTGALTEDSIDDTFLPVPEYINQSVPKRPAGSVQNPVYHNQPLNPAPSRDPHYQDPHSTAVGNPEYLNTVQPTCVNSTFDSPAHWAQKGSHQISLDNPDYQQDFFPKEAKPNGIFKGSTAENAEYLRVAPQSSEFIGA

[15] = biological target: Receptor tyrosine-protein kinase erbB-2 (Homo sapiens) (UniProt P04626); experiment: Inhibition of ErbB2 (unknown origin) at 10 uM incubated for 40 mins in presence of Mg/ATP mix by [gamma p33]-ATP based scintillation counting method relative to control
Sequence of Receptor tyrosine-protein kinase erbB-2 (Homo sapiens) (P04626 whole entry): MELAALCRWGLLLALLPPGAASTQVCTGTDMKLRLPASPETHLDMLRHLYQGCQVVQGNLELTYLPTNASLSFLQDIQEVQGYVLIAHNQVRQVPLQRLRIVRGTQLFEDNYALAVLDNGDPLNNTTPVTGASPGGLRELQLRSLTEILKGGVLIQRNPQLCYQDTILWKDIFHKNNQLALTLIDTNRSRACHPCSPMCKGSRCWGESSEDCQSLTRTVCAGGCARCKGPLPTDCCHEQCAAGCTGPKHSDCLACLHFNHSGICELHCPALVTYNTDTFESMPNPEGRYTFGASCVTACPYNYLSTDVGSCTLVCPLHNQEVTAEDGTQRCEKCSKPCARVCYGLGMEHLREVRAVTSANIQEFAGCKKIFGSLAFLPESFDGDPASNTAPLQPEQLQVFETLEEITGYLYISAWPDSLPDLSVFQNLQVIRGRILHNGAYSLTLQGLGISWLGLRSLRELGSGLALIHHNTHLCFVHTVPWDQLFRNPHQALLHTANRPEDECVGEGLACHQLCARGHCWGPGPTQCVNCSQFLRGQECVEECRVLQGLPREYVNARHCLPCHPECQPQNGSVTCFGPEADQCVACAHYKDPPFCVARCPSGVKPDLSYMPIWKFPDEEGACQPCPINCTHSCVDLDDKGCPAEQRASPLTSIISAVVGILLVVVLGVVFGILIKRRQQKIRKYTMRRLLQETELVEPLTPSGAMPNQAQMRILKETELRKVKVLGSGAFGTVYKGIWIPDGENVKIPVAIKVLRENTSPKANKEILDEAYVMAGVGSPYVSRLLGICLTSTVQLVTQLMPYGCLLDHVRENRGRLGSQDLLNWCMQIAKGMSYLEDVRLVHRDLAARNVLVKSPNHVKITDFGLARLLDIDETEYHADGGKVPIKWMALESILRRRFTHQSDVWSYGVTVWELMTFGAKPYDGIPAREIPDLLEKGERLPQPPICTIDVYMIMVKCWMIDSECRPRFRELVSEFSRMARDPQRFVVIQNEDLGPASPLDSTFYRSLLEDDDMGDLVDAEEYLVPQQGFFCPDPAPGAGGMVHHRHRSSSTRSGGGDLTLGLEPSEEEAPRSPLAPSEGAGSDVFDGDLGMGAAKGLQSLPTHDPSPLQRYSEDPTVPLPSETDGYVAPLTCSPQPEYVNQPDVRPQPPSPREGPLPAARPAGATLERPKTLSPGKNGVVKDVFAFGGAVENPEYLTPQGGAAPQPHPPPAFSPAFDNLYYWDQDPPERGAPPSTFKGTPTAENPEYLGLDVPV

[16] = biological target: T2, Receptor tyrosine-protein kinase erbB-4 (Homo sapiens, UniProt Q15303); experiment: Inhibition of ErbB4 (unknown origin) at 10 uM incubated for 40 mins in presence of Mg/ATP mix by [gamma p33]-ATP based scintillation counting method relative to control
T2 sequence (Q15303 whole entry): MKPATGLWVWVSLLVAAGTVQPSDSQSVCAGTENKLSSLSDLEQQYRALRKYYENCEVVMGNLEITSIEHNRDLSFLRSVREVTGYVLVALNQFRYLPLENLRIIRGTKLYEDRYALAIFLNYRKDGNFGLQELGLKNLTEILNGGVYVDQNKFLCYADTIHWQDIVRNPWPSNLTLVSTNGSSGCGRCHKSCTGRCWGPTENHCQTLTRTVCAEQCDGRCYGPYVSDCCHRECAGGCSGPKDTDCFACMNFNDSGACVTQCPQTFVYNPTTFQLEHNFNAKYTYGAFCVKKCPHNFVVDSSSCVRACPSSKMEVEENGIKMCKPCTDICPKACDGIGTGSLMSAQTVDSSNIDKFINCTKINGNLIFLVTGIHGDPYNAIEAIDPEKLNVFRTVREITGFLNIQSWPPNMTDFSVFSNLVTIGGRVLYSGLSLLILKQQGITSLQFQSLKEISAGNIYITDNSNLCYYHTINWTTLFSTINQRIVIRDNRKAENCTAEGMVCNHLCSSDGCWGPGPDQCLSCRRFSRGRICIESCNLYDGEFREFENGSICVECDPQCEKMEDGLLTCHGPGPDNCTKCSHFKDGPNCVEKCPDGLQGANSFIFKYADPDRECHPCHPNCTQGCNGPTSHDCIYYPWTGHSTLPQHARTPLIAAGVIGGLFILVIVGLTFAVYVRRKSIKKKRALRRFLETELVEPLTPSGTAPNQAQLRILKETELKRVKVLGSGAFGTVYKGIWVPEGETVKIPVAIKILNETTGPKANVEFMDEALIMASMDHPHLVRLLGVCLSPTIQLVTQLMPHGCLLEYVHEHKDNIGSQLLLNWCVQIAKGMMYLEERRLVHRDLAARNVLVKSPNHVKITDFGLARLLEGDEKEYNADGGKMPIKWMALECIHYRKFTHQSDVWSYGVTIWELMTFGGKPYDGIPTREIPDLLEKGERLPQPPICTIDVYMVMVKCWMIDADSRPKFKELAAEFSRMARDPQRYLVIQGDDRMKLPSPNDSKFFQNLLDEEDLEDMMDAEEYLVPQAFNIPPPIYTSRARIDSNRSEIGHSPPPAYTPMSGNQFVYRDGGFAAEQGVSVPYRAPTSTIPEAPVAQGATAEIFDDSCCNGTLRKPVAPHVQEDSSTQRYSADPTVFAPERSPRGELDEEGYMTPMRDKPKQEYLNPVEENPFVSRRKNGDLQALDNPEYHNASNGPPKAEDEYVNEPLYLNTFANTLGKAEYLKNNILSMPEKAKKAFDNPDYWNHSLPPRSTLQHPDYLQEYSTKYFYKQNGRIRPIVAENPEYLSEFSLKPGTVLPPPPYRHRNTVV

[17] = biological target: Fibroblast growth factor receptor 1 (Homo sapiens) (UniProt P11362); experiment: Inhibition of FGFR1 (unknown origin) at 10 uM incubated for 40 mins in presence of Mg/ATP mix by [gamma p33]-ATP based scintillation counting method relative to control
[18] = system: Serine/threonine-protein kinase B-raf (Homo sapiens), P15056 [V600E]; experiment: Inhibition of BRAF V600E mutant (unknown origin) at 10 uM incubated for 40 mins in presence of Mg/ATP mix by [gamma p33]-ATP based scintillation counting method relative to control
[19] = biological target: T3, Mitogen-activated protein kinase 10 (Homo sapiens, UniProt P53779); experiment: Inhibition of JNK3 (unknown origin) at 10 uM incubated for 40 mins in presence of Mg/ATP mix by [gamma p33]-ATP based scintillation counting method relative to control
T3 sequence (P53779 whole entry): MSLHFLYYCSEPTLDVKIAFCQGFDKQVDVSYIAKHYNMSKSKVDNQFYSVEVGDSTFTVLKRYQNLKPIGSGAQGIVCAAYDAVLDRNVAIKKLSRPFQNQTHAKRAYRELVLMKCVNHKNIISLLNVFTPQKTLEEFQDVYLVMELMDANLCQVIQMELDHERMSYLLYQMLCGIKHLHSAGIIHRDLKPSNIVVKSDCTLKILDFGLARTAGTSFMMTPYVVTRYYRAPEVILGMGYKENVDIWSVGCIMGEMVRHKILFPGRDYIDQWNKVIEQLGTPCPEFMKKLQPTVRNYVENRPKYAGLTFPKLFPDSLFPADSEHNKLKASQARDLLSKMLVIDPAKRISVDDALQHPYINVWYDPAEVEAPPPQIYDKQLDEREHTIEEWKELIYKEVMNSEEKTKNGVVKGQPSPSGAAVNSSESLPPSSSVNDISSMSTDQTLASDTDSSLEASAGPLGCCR

[20] = biological target: T1, Epidermal growth factor receptor; experiment: Inhibition of EGFR (unknown origin) incubated for 40 mins in presence of Mg/ATP mix by [gamma p33]-ATP based scintillation counting method
[21] = biological target: T2, Receptor tyrosine-protein kinase erbB-4; experiment: Inhibition of ErbB4 (unknown origin) incubated for 40 mins in presence of Mg/ATP mix by [gamma p33]-ATP based scintillation counting method
[22] = biological target: Tyrosine-protein kinase JAK3 (Homo sapiens, UniProt P52333); experiment: Inhibition of JAK3 (unknown origin) incubated for 40 mins in presence of Mg/ATP mix by [gamma p33]-ATP based scintillation counting method
[23] = biological target: T3, Mitogen-activated protein kinase 10; experiment: Inhibition of JNK3 (unknown origin) incubated for 40 mins in presence of Mg/ATP mix by [gamma p33]-ATP based scintillation counting method
[24] = species on record: Homo sapiens; experiment: Selectivity ratio of IC50 for inhibition of EGFR (unknown origin) to IC50 for inhibition of ErbB4 (unknown origin); details: dose 10.0 µM, time 40.0 min
[25] = species on record: Homo sapiens; experiment: Selectivity ratio of IC50 for inhibition of JAK3 (unknown origin) to IC50 for inhibition of ErbB4 (unknown origin); details: dose 10.0 µM, time 40.0 min
[26] = species on record: Homo sapiens; experiment: Selectivity ratio of IC50 for inhibition of JNK3 (unknown origin) to IC50 for inhibition of ErbB4 (unknown origin); details: dose 10.0 µM, time 40.0 min
[27] = biological target: T2, Receptor tyrosine-protein kinase erbB-4; experiment: Potency index, ratio of staurosporine IC50 to test compound IC50 for inhibition of ErbB4 (unknown origin) at 10 uM incubated for 40 mins in presence of Mg/ATP mix by [gamma p33]-ATP based scintillation counting method
[28] = system: T47D; experiment: Antiproliferative activity against human T47D cells assessed as cell growth inhibition measured after 48 hrs by SRB assay; format: functional, cell-based
[29] = biological target: T2, Receptor tyrosine-protein kinase erbB-4; experiment: Inhibition of ErbB4 expressed in human T47D cells at antiproliferative IC50 in presence of -neuregulin 1 incubated for 90 mins by sandwich ELISA relative to control; format: cell-based
[30] = biological target: hERG (KCNH2) (Homo sapiens, UniProt Q12809); experiment: Safety index, ratio of test compound IC50 to E-4031 IC50 for inhibition of human ERG incubated for 3 hrs by competitive fluorescence tracer binding based assay; details: read-out: Ratio IC50
[31] = biological target: Cytochrome P450 2D6 (Homo sapiens, UniProt P10635); experiment: Inhibition of CYP2D6 (unknown origin) using EOMCC as a substrate incubated for 20 mins by fluorescence based analysis; format: ADME
Sequence of Cytochrome P450 2D6 (P10635 whole entry): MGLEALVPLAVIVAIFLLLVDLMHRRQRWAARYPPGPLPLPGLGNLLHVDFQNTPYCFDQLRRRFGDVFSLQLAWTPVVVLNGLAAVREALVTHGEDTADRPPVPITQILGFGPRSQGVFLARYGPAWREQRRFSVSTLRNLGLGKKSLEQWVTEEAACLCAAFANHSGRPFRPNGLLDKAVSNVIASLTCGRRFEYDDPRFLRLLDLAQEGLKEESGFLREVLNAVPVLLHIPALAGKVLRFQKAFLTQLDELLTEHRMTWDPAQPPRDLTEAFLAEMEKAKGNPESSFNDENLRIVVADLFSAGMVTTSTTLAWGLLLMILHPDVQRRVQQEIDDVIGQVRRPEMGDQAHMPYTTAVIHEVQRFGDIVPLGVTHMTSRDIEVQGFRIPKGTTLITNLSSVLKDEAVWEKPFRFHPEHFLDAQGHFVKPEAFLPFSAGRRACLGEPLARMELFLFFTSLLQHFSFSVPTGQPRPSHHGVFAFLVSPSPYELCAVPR

[32] = biological target: Cytochrome P450 3A4 (Homo sapiens, UniProt P08684); experiment: Inhibition of CYP3A4 (unknown origin) using BOMCC as a substrate incubated for 20 mins by fluorescence based analysis; format: ADME
[33] = biological target: Serine/threonine-protein kinase B-raf (Homo sapiens, UniProt P15056, V600E); experiment: Inhibition of BRAF V600E mutant (unknown origin) incubated for 40 mins in presence of Mg/ATP mix by [gamma p33]-ATP based scintillation counting method

Q: With `CS(=O)(=O)c1nccc(-c2c(-c3cccc(OCc4ccccc4)c3)nc3sccn23)n1` as the molecule, how does the growth at 10 µM [1] read?
A: 63.4%

Q: And the IC50 [2]?
A: 4.91 µM

Q: What about the IC50 [3] of the same molecule?
A: 0.51 µM

Q: And the IC50 [4]?
A: 3.78 µM

Q: And the IC50 [5]?
A: 1.55 µM

Q: And the IC50 [6]?
A: 8.54 µM

Q: What about the inhibition at 10 µM [7] of the same molecule?
A: 94.1%

Q: And the inhibition at 10 µM [8]?
A: 10.9%

Q: And the inhibition at 10 µM [9]?
A: 99.9%

Q: And the inhibition at 10 µM [10]?
A: 96.3%

Q: What about the inhibition at 10 µM [11] of the same molecule?
A: 165%

Q: What about the inhibition at 48 h, 10 µM [12] of the same molecule?
A: 56.4%

Q: And the inhibition [13]?
A: 34.3%

Q: What about the inhibition [14] of the same molecule?
A: 63.6%

Q: What about the inhibition [15] of the same molecule?
A: 2.75%

Q: And the inhibition [16]?
A: 96.1%

Q: What about the inhibition [17] of the same molecule?
A: 3.33%

Q: What about the inhibition [18] of the same molecule?
A: 62.1%

Q: And the inhibition [19]?
A: 66%

Q: And the IC50 [20]?
A: 9.92 µM

Q: What about the IC50 [21] of the same molecule?
A: 0.0152 µM

Q: And the IC50 [22]?
A: 8.35 µM

Q: What about the IC50 [23] of the same molecule?
A: 5.2 µM

Q: What about the Ratio IC50 [24] of the same molecule?
A: 651

Q: What about the Ratio IC50 [25] of the same molecule?
A: 548

Q: What about the Ratio IC50 [26] of the same molecule?
A: 341

Q: And the Ratio IC50 [27]?
A: 9

Q: What about the IC50 [28] of the same molecule?
A: 4.08 µM

Q: What about the inhibition [29] of the same molecule?
A: > 50%

Q: And the selectivity ratio at 3 h [30]?
A: 513

Q: What about the IC50 [31] of the same molecule?
A: > 90 µM

Q: What about the IC50 [32] of the same molecule?
A: 17.8 µM

Q: And the IC50 [33]?
A: 13.2 µM
